Measured values published in ChEMBL document CHEMBL6114953, “De novo discovery of cyclic peptide inhibitors of IL-11 signaling” (Bioorg Med Chem, 2025).
pKi: −log10 of the molar value. Where a SMILES comes first, the peptide text is derived from it. Bridges are numbered along the chain shown (N, C = ends). [ ]: non-standard residue; d: D form. ξ: configuration not given here. Met(O) = CS(=O)CC[C@H](N)C(=O)O; ξH = NC(Cc1c[nH]cn1)C(=O)O; Nle = CCCC[C@H](N)C(=O)O

Assay: Inhibition of his-tagged recombinant human IL-11 (22 to 199 residues) expressed in HEK293 cells/biotinylated recombinant human IL-11Ralpha (24 to 370 residues) expressed in HEK293 cells incubated for 1 hr by AlphaLISA assay
Format: cell-based

Going from `CSCC[C@@H]1NC(=O)[C@H](Cc2c[nH]cn2)NC(=O)[C@H](CO)NC(=O)[C@@H](NC(=O)[C@H](Cc2c[nH]c3ccccc23)NC(=O)[C@H](Cc2ccc(O)cc2)NC(=O)[C@H](Cc2ccccc2)NC(=O)[C@H](CCC(N)=O)NC(=O)[C@@H](NC(C)=O)C(C)C)CSSC[C@@H](C(=O)N[C@@H](Cc2c[nH]c3ccccc23)C(=O)N[C@@H](CCCNC(=N)N)C(N)=O)NC(=O)[C@H](C(C)C)NC(=O)[C@H]([C@@H](C)O)NC(=O)[C@H]([C@@H](C)O)NC(=O)[C@H](Cc2ccc(O)cc2)NC(=O)[C@H](Cc2ccc(O)cc2)NC1=O` (Ac-VQFYWCSHMYYTTVCWR-NH2; disulfide 6-15) to `CSCC[C@@H]1NC(=O)[C@H](Cc2c[nH]cn2)NC(=O)[C@H](CO)NC(=O)[C@@H](NC(=O)[C@H](Cc2c[nH]c3ccccc23)NC(=O)[C@H](Cc2ccc(O)cc2)NC(=O)[C@H](Cc2ccccc2)NC(=O)[C@H](CCC(N)=O)NC(=O)[C@@H](NC(=O)[C@@H](NC(=O)[C@H](CCC(N)=O)NC(=O)[C@H](C)N)[C@@H](C)O)C(C)C)CSSC[C@@H](C(=O)N[C@@H](Cc2c[nH]c3ccccc23)C(=O)N[C@@H](CCCNC(=N)N)C(N)=O)NC(=O)[C@H](C(C)C)NC(=O)[C@H]([C@@H](C)O)NC(=O)[C@H]([C@@H](C)O)NC(=O)[C@H](Cc2ccc(O)cc2)NC(=O)[C@H](Cc2ccc(O)cc2)NC1=O` (H-AQTVQFYWCSHMYYTTVCWR-NH2; disulfide 9-18), the pKi rises from 6.15 to 6.74 (0.59 log units). The second binds more tightly here.

Compared with `CSCC[C@@H]1NC(=O)[C@H](Cc2c[nH]cn2)NC(=O)[C@H](CO)NC(=O)[C@@H](NC(=O)[C@H](Cc2c[nH]c3ccccc23)NC(C)=O)CSSC[C@@H](C(=O)N[C@@H](Cc2c[nH]c3ccccc23)C(=O)N[C@@H](CCCNC(=N)N)C(N)=O)NC(=O)[C@H](C(C)C)NC(=O)[C@H]([C@@H](C)O)NC(=O)[C@H]([C@@H](C)O)NC(=O)[C@H](Cc2ccc(O)cc2)NC(=O)[C@H](Cc2ccc(O)cc2)NC1=O` (Ac-WCSHMYYTTVCWR-NH2; disulfide 2-11), `CSCC[C@@H]1NC(=O)[C@H](Cc2c[nH]cn2)NC(=O)[C@H](CO)NC(=O)[C@@H](NC(=O)[C@H](Cc2c[nH]c3ccccc23)NC(=O)[C@H](Cc2ccc(O)cc2)NC(C)=O)CSSC[C@@H](C(=O)N[C@@H](Cc2c[nH]c3ccccc23)C(N)=O)NC(=O)[C@H](C(C)C)NC(=O)[C@H]([C@@H](C)O)NC(=O)[C@H]([C@@H](C)O)NC(=O)[C@H](Cc2ccc(O)cc2)NC(=O)[C@H](Cc2ccc(O)cc2)NC1=O` (Ac-YWCSHMYYTTVCW-NH2; disulfide 3-12) is lower in pKi: 5.49 for the first, < 4.55 for the second.

`CC(=O)N[C@@H](Cc1ccc(O)cc1)C(=O)N[C@@H](Cc1c[nH]c2ccccc12)C(=O)N[C@H]1CSSC[C@@H](C(=O)N[C@@H](Cc2c[nH]c3ccccc23)C(=O)N[C@@H](CCCNC(=N)N)C(N)=O)NC(=O)[C@H](C(C)C)NC(=O)[C@H]([C@@H](C)O)NC(=O)[C@H]([C@@H](C)O)NC(=O)[C@H](Cc2ccc(O)cc2)NC(=O)[C@H](Cc2ccc(O)cc2)NC(=O)CNC(=O)[C@H](Cc2c[nH]cn2)NC(=O)[C@H](CO)NC1=O` (Ac-YWCSHGYYTTVCWR-NH2; disulfide 3-12) and `CC(=O)N[C@@H](Cc1ccc(O)cc1)C(=O)N[C@@H](Cc1c[nH]c2ccccc12)C(=O)N[C@H]1CSSC[C@@H](C(=O)N[C@@H](Cc2c[nH]c3ccccc23)C(=O)N[C@@H](CCCNC(=N)N)C(N)=O)NC(=O)[C@H](C(C)C)NC(=O)[C@H]([C@@H](C)O)NC(=O)[C@H]([C@@H](C)O)NC(=O)[C@H](Cc2ccc(O)cc2)NC(=O)[C@H](Cc2ccc(O)cc2)NC(=O)[C@H](CC(C)C)NC(=O)[C@H](Cc2c[nH]cn2)NC(=O)[C@H](CO)NC1=O` (Ac-YWCSHLYYTTVCWR-NH2; disulfide 3-12) are within 0.2 log units of each other in pKi: 5.77 for the first, 5.72 for the second.

First: CSCC[C@@H]1NC(=O)[C@H](Cc2c[nH]cn2)NC(=O)[C@H](CO)NC(=O)[C@@H](NC(=O)[C@H](Cc2c[nH]c3ccccc23)NC(=O)[C@H](Cc2ccc(O)cc2)NC(C)=O)CSSC[C@@H](C(N)=O)NC(=O)[C@H](C(C)C)NC(=O)[C@H]([C@@H](C)O)NC(=O)[C@H]([C@@H](C)O)NC(=O)[C@H](Cc2ccc(O)cc2)NC(=O)[C@H](Cc2ccc(O)cc2)NC1=O (Ac-YWCSHMYYTTVC-NH2; disulfide 3-12)
Second: CCCC[C@@H]1NC(=O)[C@H](Cc2c[nH]cn2)NC(=O)[C@H](CO)NC(=O)[C@@H](NC(=O)[C@H](Cc2c[nH]c3ccccc23)NC(=O)[C@H](Cc2ccc(O)cc2)NC(C)=O)CSSC[C@@H](C(=O)N[C@@H](Cc2c[nH]c3ccccc23)C(=O)N[C@@H](CCCNC(=N)N)C(N)=O)NC(=O)[C@H](C(C)C)NC(=O)[C@H]([C@@H](C)O)NC(=O)[C@H]([C@@H](C)O)NC(=O)[C@H](Cc2ccc(O)cc2)NC(=O)[C@H](Cc2ccc(O)cc2)NC1=O (Ac-YWCSH[Nle]YYTTVCWR-NH2; disulfide 3-12)
The pKi of the first is lower: < 4.55 for the first, 6.05 for the second.

First: CC[C@H](C)[C@@H]1NC(=O)[C@H](Cc2c[nH]cn2)NC(=O)[C@H](Cc2c[nH]cn2)NC(=O)[C@H](C)NC(=O)[C@@H](NC(=O)[C@H](Cc2ccccc2)NC(=O)[C@H](CCC(=O)O)NC(=O)[C@@H](NC(=O)[C@@H](NC(=O)[C@H](CCC(=O)O)NC(=O)[C@H](C)N)[C@@H](C)O)C(C)C)CSSC[C@@H](C(N)=O)NC(=O)[C@H](Cc2c[nH]c3ccccc23)NC(=O)[C@H](Cc2c[nH]c3ccccc23)NC(=O)[C@H](Cc2c[nH]c3ccccc23)NC(=O)[C@H](C)NC(=O)[C@H](Cc2ccc(O)cc2)NC1=O (H-AETVEFCAHHIYAWWWC-NH2; disulfide 7-17)
Second: CC(C)C[C@@H]1NC(=O)[C@H](Cc2c[nH]c3ccccc23)NC(=O)[C@@H](NC(=O)[C@H](Cc2ccccc2)NC(=O)[C@H](CCC(=O)O)NC(=O)[C@@H](NC(=O)[C@@H](NC(=O)[C@H](CCC(=O)O)NC(=O)[C@H](C)N)[C@@H](C)O)C(C)C)CSSC[C@@H](C(N)=O)NC(=O)[C@H](CCC(=O)O)NC(=O)[C@H](Cc2ccc(O)cc2)NC(=O)[C@H](Cc2c[nH]c3ccccc23)NC(=O)[C@H](Cc2ccc(O)cc2)NC(=O)C(Cc2c[nH]cn2)NC(=O)[C@H](Cc2c[nH]c3ccccc23)NC(=O)[C@@H]2CCCN2C1=O (stereo partly specified) (H-AETVEFCWLPW[ξH]YWYEC-NH2; disulfide 7-17)
The pKi of the first is 0.27 log units lower: 5.62 for the first, 5.89 for the second.

Compared with `CC(C)C[C@@H]1NC(=O)CNC(=O)[C@H](Cc2ccccc2)NC(=O)[C@H](Cc2c[nH]c3ccccc23)NC(=O)[C@H](CCC(=O)O)NC(=O)[C@H](Cc2c[nH]c3ccccc23)NC(=O)[C@H]([C@@H](C)O)NC(=O)[C@@H]2CCCN2C(=O)[C@H](Cc2c[nH]cn2)NC(=O)[C@@H](NC(=O)[C@H](Cc2ccccc2)NC(=O)[C@H](CCC(=O)O)NC(=O)[C@@H](NC(=O)[C@@H](NC(=O)[C@H](CCC(=O)O)NC(=O)[C@H](C)N)[C@@H](C)O)C(C)C)CSSC[C@@H](C(N)=O)NC1=O` (H-AETVEFCHPTWEWFGLC-NH2; disulfide 7-17), `CC(C)C[C@@H]1NC(=O)[C@H](Cc2c[nH]c3ccccc23)NC(=O)[C@@H](NC(=O)[C@H](Cc2ccccc2)NC(=O)[C@H](CCC(=O)O)NC(=O)[C@@H](NC(=O)[C@@H](NC(=O)[C@H](CCC(=O)O)NC(=O)[C@H](C)N)[C@@H](C)O)C(C)C)CSSC[C@@H](C(N)=O)NC(=O)[C@H](CCC(N)=O)NC(=O)[C@H](CCC(=O)O)NC(=O)[C@H](Cc2c[nH]c3ccccc23)NC(=O)[C@H](Cc2c[nH]c3ccccc23)NC(=O)[C@H](CCC(N)=O)NC(=O)[C@H](Cc2ccccc2)NC(=O)[C@@H]2CCCN2C1=O` (H-AETVEFCWLPFQWWEQC-NH2; disulfide 7-17) is 0.84 log units higher in pKi: 5.62 for the first, 6.46 for the second. The second binds more tightly here.

First: CC(C)C[C@@H]1NC(=O)[C@H](CCC(=O)O)NC(=O)[C@H](Cc2ccccc2)NC(=O)[C@H](CCC(N)=O)NC(=O)[C@@H]2CCCN2C(=O)[C@H](Cc2c[nH]c3ccccc23)NC(=O)[C@H](C(C)C)NC(=O)[C@H](Cc2ccc(O)cc2)NC(=O)[C@@H](NC(=O)[C@H](Cc2ccccc2)NC(=O)[C@H](CCC(=O)O)NC(=O)[C@@H](NC(=O)[C@@H](NC(=O)[C@H](CCC(=O)O)NC(=O)[C@H](C)N)[C@@H](C)O)C(C)C)CSSC[C@@H](C(N)=O)NC(=O)[C@H](C(C)C)NC1=O (H-AETVEFCYVWPQFELVC-NH2; disulfide 7-17)
Second: CSCC[C@@H]1NC(=O)[C@H](Cc2c[nH]cn2)NC(=O)[C@H](CO)NC(=O)[C@@H](NC(=O)[C@H](Cc2c[nH]c3ccccc23)NC(=O)[C@H](Cc2ccc(O)cc2)NC(=O)[C@H](Cc2ccccc2)NC(=O)[C@H](CCC(=O)O)NC(=O)[C@@H](NC(=O)[C@@H](NC(=O)[C@H](CCC(=O)O)NC(=O)[C@H](C)N)[C@@H](C)O)C(C)C)CSSC[C@@H](C(=O)N[C@@H](Cc2c[nH]c3ccccc23)C(=O)N[C@@H](CCCNC(=N)N)C(N)=O)NC(=O)[C@H](C(C)C)NC(=O)[C@H]([C@@H](C)O)NC(=O)[C@H]([C@@H](C)O)NC(=O)[C@H](Cc2ccc(O)cc2)NC(=O)[C@H](Cc2ccc(O)cc2)NC1=O (H-AETVEFYWCSHMYYTTVCWR-NH2; disulfide 9-18)
The pKi of the first is 1.10 log units higher: 6.51 for the first, 5.41 for the second.

`CC(C)[C@H](NC(=O)[C@@H](NC(=O)[C@H](CCC(N)=O)NC(=O)[C@H](C)N)[C@@H](C)O)C(=O)N[C@@H](CCC(N)=O)C(=O)N[C@@H](Cc1ccccc1)C(=O)N[C@@H](Cc1ccc(O)cc1)C(=O)N[C@@H](Cc1c[nH]c2ccccc12)C(=O)N[C@H]1CSSC[C@@H](C(=O)N[C@@H](Cc2c[nH]c3ccccc23)C(=O)N[C@@H](CCCNC(=N)N)C(N)=O)NC(=O)[C@H](C(C)C)NC(=O)[C@H]([C@@H](C)O)NC(=O)[C@H]([C@@H](C)O)NC(=O)[C@H](Cc2ccc(O)cc2)NC(=O)[C@H](Cc2ccc(O)cc2)NC(=O)[C@H](CC[S+](C)[O-])NC(=O)[C@H](Cc2c[nH]cn2)NC(=O)[C@H](CO)NC1=O` (stereo partly specified) (H-AQTVQFYWCSH[Met(O)]YYTTVCWR-NH2; disulfide 9-18) and `CCCC[C@@H]1NC(=O)[C@H](Cc2c[nH]cn2)NC(=O)[C@H](CO)NC(=O)[C@@H](NC(=O)[C@H](Cc2c[nH]c3ccccc23)NC(=O)[C@H](Cc2ccc(O)cc2)NC(=O)[C@H](Cc2ccccc2)NC(=O)[C@H](CCC(N)=O)NC(=O)[C@@H](NC(=O)[C@@H](NC(=O)[C@H](CCC(N)=O)NC(=O)[C@H](C)N)[C@@H](C)O)C(C)C)CSSC[C@@H](C(=O)N[C@@H](Cc2c[nH]c3ccccc23)C(=O)N[C@@H](CCCNC(=N)N)C(N)=O)NC(=O)[C@H](C(C)C)NC(=O)[C@H]([C@@H](C)O)NC(=O)[C@H]([C@@H](C)O)NC(=O)[C@H](Cc2ccc(O)cc2)NC(=O)[C@H](Cc2ccc(O)cc2)NC1=O` (H-AQTVQFYWCSH[Nle]YYTTVCWR-NH2; disulfide 9-18) are within 0.2 log units of each other in pKi: 6.49 for the first, 6.59 for the second.
